{"source": "patent US4994582A", "about": "“Novel antibiotic NK130119” (Nippon Kayaku Kabushiki Kaisha, priority 1989, dated 1991)", "key": {"Botrytis cinera": {"tested_on": "Botrytis cinera", "test": "antifungal spectrum on potato sucrose agar medium", "format": "cell-based", "settings": "read-out: Minimum inhibitory concentration", "from_the_text": "the antifungal spectrum of the compound of the present invention was examined.\n(*) potato sucrose agar medium was used."}, "[1]": {"tested_on": "human pulmonary cancer cells (PC-3)", "test": "growth-inhibitory effect on human pulmonary cancer cells, dye exclusion method", "format": "cell-based", "settings": "72 h, three days", "experimental": "the growth-inhibitory effects of the compound of the present invention on mouse pulmonary cancer cells (LL) and human plumonary cancer cells (PC-3) were examined.\nA 96-well plate was inoculated with mouse polmonary cancer cells at a ratio of 8.0×10^2 cells per well, while another 96-well plate was inoculated with human pulmonary cancer cells at a ratio of 2.5×10^3 per well. These cells were incubated in an incubator at 37° C. under 5% CO2 for 24 hours. Then the compound of the present invention was added thereto at various concentrations. Cells in each well were counted by the dye exclusion method three days after the addition to thereby evaluate the growth-inhibitory effect of the test compound on the mouse pulmonary cancer cells (LL) and that on the human pulmonary cancer cells (PC-3)."}, "[2]": {"tested_on": "mouse melanoma cells (B16)", "test": "growth-inhibitory effect on mouse melanoma cells, dye exclusion method", "format": "cell-based", "settings": "72 hours", "experimental": "The growth-inhibitory effects of the compound of the present invention on mouse melanoma cells (B16) and human melanoma cells (G361) were examined. A 96-well plate was inoculated with mouse melanoma cells at a ratio of 1.5×10^3 cells per well, while another 96-well plate was inoculated with human melanoma cells at a ratio of 1.0×10^3 per well. These cells were incubated in an incubator at 37° C. under 5% CO2. Then the compound of the present invention was added thereto at various concentrations. Cells in each well were counted by the dye exclusion method 72 hours after the addition to thereby evaluate the growth-inhibitory effect of the test compound on the mouse melanoma cells and that on the human melanoma cells at various concentrations."}, "[3]": {"tested_on": "bovine adrenal capillary endothelial cells", "test": "growth-inhibitory effect on endothelial cells, Coulter counter", "format": "cell-based", "settings": "Bos taurus, Endothelial cell, 72 h, three days", "experimental": "The growth-inhibitory effect of the compound of the present invention on endothelial cells was examined. A 96-well plate was inoculated with bovine adrenal capillary endothelial cells at a ratio of 1×10^4 cells per well. One day after the inoculation, the compound of the present invention was added thereto at various concentrations. Cells in each well were counted with a Coulter counter three days after the addition to thereby evaluate the growth-inhibitory effect of the test compound on the capillary endothelial cells. […] Thus the IC50 of the compound of the present invention on the endothelial cells was 0.0003 μg/ml, showing a strong growth-inhibitory effect."}, "[4]": {"tested_on": "vascularization by the Ehrlich asoites tumor cells crude extract", "test": "vascularization-inhibitory effect, rabbit corneal assay", "format": "in vivo", "settings": "slow-releasing pellet in cornea", "experimental": "The vascularization-inhibitory effect of the compound of the present invention was examined by rabbit corneal assay reported by M. A. Gimbrone et al. (J. National Cancer Inst., 52, 412 (1974)). Namely, the center of the cornea of the eye of a rabbit was incised with a knife at a length of approximately 2 mm to thereby form a pouch. Then a slow-releasing pellet containing 100 μg of a crude extract of Ehrlich asoites tumor cells, which had been preliminarily prepared according to a method proposed by R. Langer et al. (Nature, 263, 797 ([…])), was introduced into the pouch. Further another slow-releasing pellet containing 0.3 to 81 μg of the compound of the present invention was introduced there into so as to contact these pellets with each other."}, "[5]": {"tested_on": "two-spoted spider mite acarids (a Kelthane-resistant species)", "test": "insecticidal action, mortality of two-spoted spider mite imagos", "format": "in vivo", "settings": "after 2 days", "experimental": "(§1) The insecticidal action of the compound of the present invention was examined by the following method.\n(1) An imago of two-spoted spider mite acarids (a Kelthane-resistant species) was used as a test vermin, and the mortality rate thereof was assaYed according to an ordinary method (described on page 327 of \"NoYaku Seibutsu Kenteiho\" edited by Toyoji Hosotsuji).\nSpecifically, a solution of the compound of the present invention in acetone (0.1%) was added to 0.5 ml of an aqueous sucrose solution (1%) to have a predetermined concentration. Ten two-spoted spider mite acarids were released in a vessel (20-ml beaker), and the vessel was covered with a paraffin film. The agent solution prepared above was put on the paraffin film, and another praffin film was put thereon. The beaker was allowed to stand in a thermostatic chamber (20°±1° C.) for a predetermined period of time, and the life and death of the test vermin were investigated."}, "[6]": {"tested_on": "larva of mosquito culices (a sensitive species)", "test": "insecticidal action, mortality of mosquito larvae", "format": "in vivo", "settings": "read-out: Mortality rate, larvae of mosquito", "experimental": "as §1\n(2) A larva of mosquito culices (a sensitive species) was used as a test vermin, and the mortality rate thereof was assayed according to an ordinary method (described on page 109 of \"Noyaku Jikkenho I, Sacchuzaihen\" published by Soft Science, Inc.).\nSpecifically, 10 ml of well water was placed in a vessel (15-ml Petridish), and 5 larvae of mosquito culices (the third stage) were released in the vessel. A solution of the compound of the present invention in acetone (0.1%) was added thereto so as to have a predetermined concentration. The vessel was allowed to stand in a thermostatic chamber (26°±1° C.) for a predetermined period of time, and the life and death of the test vermin were investigated."}, "acute toxicity on mice": {"test": "acute toxicity on mice", "settings": "mouse, in vivo, ip"}, "solubility": {"test": "solubility", "format": "physicochemical"}}, "note": "Read-outs that look alike come from different tables or passages of the source."}
{"smiles": "CCC1/C=C/C=C/CC(C)C(O)C(C)(O)C(=O)C(C)C(O)C(C)C(=O)C(C)C(O)C(C)/C=C/C(=O)OC2C(C)C(CC1)OC1(CCC(C)C(CC(C)O)O1)C2CC", "note": "(stereo not drawn) [NK130119]", "values": [{"measurement": "MIC", "setting": "Botrytis cinera", "result": 6.25, "unit": "µg/mL"}, {"measurement": "IC50", "setting": "[1]; human pulmonary cancer cells (PC-3)", "result": 2, "unit": "µg/mL"}, {"measurement": "inhibition at 0.0006 µg/mL", "setting": "[1]; Homo sapiens, PC-3, 0.0006 μg/ml, read-out: Growth-inhibitory ratio", "result": 0.8, "unit": "%"}, {"measurement": "inhibition at 0.0024 µg/mL", "setting": "[1]; Homo sapiens, PC-3, 0.0024 μg/ml, read-out: Growth-inhibitory ratio", "result": 1.4, "unit": "%"}, {"measurement": "inhibition at 0.0098 µg/mL", "setting": "[1]; Homo sapiens, PC-3, 0.0098 μg/ml, read-out: Growth-inhibitory ratio", "result": 6.2, "unit": "%"}, {"measurement": "inhibition at 0.039 µg/mL", "setting": "[1]; Homo sapiens, PC-3, 0.039 μg/ml, read-out: Growth-inhibitory ratio", "result": 22.6, "unit": "%"}, {"measurement": "inhibition at 0.156 µg/mL", "setting": "[1]; Homo sapiens, PC-3, 0.156 μg/ml, read-out: Growth-inhibitory ratio", "result": 21.3, "unit": "%"}, {"measurement": "inhibition at 0.625 µg/mL", "setting": "[1]; Homo sapiens, PC-3, 0.625 μg/ml, read-out: Growth-inhibitory ratio", "result": 28, "unit": "%"}, {"measurement": "inhibition at 2.5 µg/mL", "setting": "[1]; Homo sapiens, PC-3, 2.5 μg/ml, read-out: Growth-inhibitory ratio", "result": 54.3, "unit": "%"}, {"measurement": "inhibition at 10 µg/mL", "setting": "[1]; Homo sapiens, PC-3, 10 μg/ml, read-out: Growth-inhibitory ratio", "result": 91.5, "unit": "%"}, {"measurement": "inhibition at 0.0006 µg/mL", "setting": "[2]; Mus musculus, B16, 0.0006 μg/ml, read-out: Growth-inhibitory ratio", "result": 0.63, "unit": "%"}, {"measurement": "inhibition at 0.0024 µg/mL", "setting": "[2]; Mus musculus, B16, 0.0024 μg/ml, read-out: Growth-inhibitory ratio", "result": 0.63, "unit": "%"}, {"measurement": "inhibition at 0.0097 µg/mL", "setting": "[2]; Mus musculus, B16, 0.0097 μg/ml, read-out: Growth-inhibitory ratio", "result": 1.32, "unit": "%"}, {"measurement": "inhibition at 0.039 µg/mL", "setting": "[2]; Mus musculus, B16, 0.039 μg/ml, read-out: Growth-inhibitory ratio", "result": 34.2, "unit": "%"}, {"measurement": "inhibition at 0.156 µg/mL", "setting": "[2]; Mus musculus, B16, 0.156 μg/ml, read-out: Growth-inhibitory ratio", "result": 45.9, "unit": "%"}, {"measurement": "inhibition at 0.625 µg/mL", "setting": "[2]; Mus musculus, B16, 0.625 μg/ml, read-out: Growth-inhibitory ratio", "result": 49.7, "unit": "%"}, {"measurement": "inhibition at 2.5 µg/mL", "setting": "[2]; Mus musculus, B16, 2.5 μg/ml, read-out: Growth-inhibitory ratio", "result": 79, "unit": "%"}, {"measurement": "inhibition at 10 µg/mL", "setting": "[2]; Mus musculus, B16, 10 μg/ml, read-out: Growth-inhibitory ratio", "result": 101, "unit": "%"}, {"measurement": "IC50", "setting": "[2]; mouse melanoma cells (B16)", "result": 0.64, "unit": "µg/mL"}, {"measurement": "IC50", "setting": "[3]; bovine adrenal capillary endothelial cells", "result": 0.0003, "unit": "µg/mL"}, {"measurement": "inhibition at 0.000128 µg/mL", "setting": "[3]; endothelial cells, 0.000128 μg/ml, read-out: Growth-inhibitory ratio", "result": 35.2, "unit": "%"}, {"measurement": "inhibition at 0.00064 µg/mL", "setting": "[3]; endothelial cells, 0.00064 μg/ml, read-out: Growth-inhibitory ratio", "result": 62.9, "unit": "%"}, {"measurement": "inhibition at 0.0032 µg/mL", "setting": "[3]; endothelial cells, 0.0032 μg/ml, read-out: Growth-inhibitory ratio", "result": 77.9, "unit": "%"}, {"measurement": "inhibition at 0.016 µg/mL", "setting": "[3]; endothelial cells, 0.016 μg/ml, read-out: Growth-inhibitory ratio", "result": 90.1, "unit": "%"}, {"measurement": "retardation of vascularization compared with control group", "setting": "[4]; 1 μg or above", "result": "significantly retarded till the fourth day"}, {"measurement": "retardation of vascularization compared with control group", "setting": "[4]; 2.7 ug or above", "result": "till the eighth day"}, {"measurement": "Mortality rate, imagos of two-spoted spider mite", "setting": "[5]; 1 ppm", "result": 20, "unit": "%"}, {"measurement": "Mortality rate, imagos of two-spoted spider mite", "setting": "[5]; 10 ppm", "result": 60, "unit": "%"}, {"measurement": "Mortality rate, imagos of two-spoted spider mite", "setting": "[5]; 100 ppm", "result": 100, "unit": "%"}, {"measurement": "mortality at 1 ppm", "setting": "[6]; 48 h, after 2 days", "result": 73, "unit": "%"}, {"measurement": "mortality at 10 ppm", "setting": "[6]; 48 h, after 2 days", "result": 100, "unit": "%"}, {"measurement": "mortality at 1 ppm", "setting": "[6]; 144 h, after 6 days", "result": 80, "unit": "%"}, {"measurement": "mortality at 10 ppm", "setting": "[6]; 144 h, after 6 days", "result": 100, "unit": "%"}, {"measurement": "mortality at 1 ppm", "setting": "[6]; 216 h, after 9 days", "result": 80, "unit": "%"}, {"measurement": "mortality at 10 ppm", "setting": "[6]; 216 h, after 9 days", "result": 100, "unit": "%"}, {"measurement": "LD50", "setting": "acute toxicity on mice", "result": 0.05, "unit": "mg/kg"}, {"measurement": "solubility in hexane", "setting": "solubility; hexane", "result": "hardly soluble"}, {"measurement": "solubility in organic solvents", "setting": "solubility; methanol, acetone, ethyl acetate and ethanol", "result": "soluble"}, {"measurement": "solubility in water", "setting": "solubility; water", "result": "hardly soluble"}]}
